Legend:
Experiment in all cases: relative viability (nuclei count vs DMSO), 5 days (fraction); higher = more cells survive
Ruboxistaurin = compound: CN(C)C[C@@H]1CCn2cc(c3ccccc32)C2=C(C(=O)NC2=O)c2cn(c3ccccc23)CCO1 [Ruboxistaurin]
Outline: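 Following overnight incubation at 37 °C, lung cancer cell lines in 1536-well plates were pinned with five library-drug doses (not always all listed) in √10 steps on vehicle-anchored plates. The cells then spent 5 days without medium change before a combined fix, permeabilisation and Hoechst stain, 4× imaging and MetaXpress nuclear counts. Viability is the treated-to-vehicle ratio of nuclei, taken as the median across plates. Only plates with control CV below 25% and at least one doubling passed.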

[1] = compound: CN(C)C[C@@H]1CCn2cc(c3ccccc32)C2=C(C(=O)NC2=O)c2cn(c3ccccc23)CCO1 [Ruboxistaurin] + CC(C)C[C@H](NC(=O)[C@H](Cc1ccccc1)NC(=O)c1cnccn1)B(O)O [Bortezomib] (partner 0.002 µM)
Outline: (§1)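 Relative viability equals treated-well nuclei counts divided by vehicle-well nuclei counts. Counts came from 4× images of lung cancer cell lines grown in 1536-well plates for 5 days after pin-tool dosing on the day after seeding. Dosing used one drug alone or a fixed anchor-drug dose plus five library-drug doses (not always all listed) in √10 steps, and values are medians of duplicate plates.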

[2] = compound: CN(C)C[C@@H]1CCn2cc(c3ccccc32)C2=C(C(=O)NC2=O)c2cn(c3ccccc23)CCO1 [Ruboxistaurin] + CS(=O)(=O)N1CCN(Cc2cc3nc(-c4cccc5[nH]ncc45)nc(N4CCOCC4)c3s2)CC1 [Pictilisib] (partner 1 µM)
Outline: as §1

[3] = compound: CN(C)C[C@@H]1CCn2cc(c3ccccc32)C2=C(C(=O)NC2=O)c2cn(c3ccccc23)CCO1 [Ruboxistaurin] + CC1(C)CCC(c2ccc(Cl)cc2)=C(CN2CCN(c3ccc(C(=O)NS(=O)(=O)c4ccc(N[C@H](CCN5CCOCC5)CSc5ccccc5)c(S(=O)(=O)C(F)(F)F)c4)cc3)CC2)C1 [Navitoclax] (partner 0.5 µM)
Outline: as §1

[4] = compound: CN(C)C[C@@H]1CCn2cc(c3ccccc32)C2=C(C(=O)NC2=O)c2cn(c3ccccc23)CCO1 [Ruboxistaurin] + COc1cc2c(Oc3ccc(NC(=O)C4(C(=O)Nc5ccc(F)cc5)CC4)cc3F)ccnc2cc1OCCCN1CCOCC1 [Foretinib] (partner 0.25 µM)
Outline: as §1

Ruboxistaurin + Olaparib = compound: CN(C)C[C@@H]1CCn2cc(c3ccccc32)C2=C(C(=O)NC2=O)c2cn(c3ccccc23)CCO1 [Ruboxistaurin] + O=C(c1cc(Cc2n[nH]c(=O)c3ccccc23)ccc1F)N1CCN(C(=O)C2CC2)CC1 [Olaparib] (partner 8 µM)
Outline: as §1

[5] = compound: CN(C)C[C@@H]1CCn2cc(c3ccccc32)C2=C(C(=O)NC2=O)c2cn(c3ccccc23)CCO1 [Ruboxistaurin] + CS(=O)(=O)CCNCc1ccc(-c2ccc3ncnc(Nc4ccc(OCc5cccc(F)c5)c(Cl)c4)c3c2)o1 [Lapatinib] (partner 2 µM)
Outline: as §1

[6] = compound: CN(C)C[C@@H]1CCn2cc(c3ccccc32)C2=C(C(=O)NC2=O)c2cn(c3ccccc23)CCO1 [Ruboxistaurin] + C[C@@H](Oc1cc(-c2cnn(C3CCNCC3)c2)cnc1N)c1c(Cl)ccc(F)c1Cl [Crizotinib] (partner 1 µM)
Outline: as §1

[7] = compound: CN(C)C[C@@H]1CCn2cc(c3ccccc32)C2=C(C(=O)NC2=O)c2cn(c3ccccc23)CCO1 [Ruboxistaurin] + C[C@]1(O)C[C@@H](c2nc(-c3ccc4ccc(-c5ccccc5)nc4c3)c3c(N)nccn32)C1 [Linsitinib] (partner 1 µM)
Outline: as §1

[8] = compound: CN(C)C[C@@H]1CCn2cc(c3ccccc32)C2=C(C(=O)NC2=O)c2cn(c3ccccc23)CCO1 [Ruboxistaurin] + Cc1nc(NC(=O)N2CCC[C@H]2C(N)=O)sc1-c1ccnc(C(C)(C)C(F)(F)F)c1 [Alpelisib] (partner 2 µM)
Outline: as §1

## EBC-1
Ruboxistaurin; 0.08 µM
  relative viability: 1.13
Ruboxistaurin; 0.8 µM
  relative viability: 0.96
Ruboxistaurin; 2.53 µM
  relative viability: 0.97
Ruboxistaurin; 8 µM
  relative viability: 0.932
[1]; first compound 0.08 µM
  relative viability: 0.587
[1]; first compound 0.8 µM
  relative viability: 0.5
[1]; first compound 2.53 µM
  relative viability: 0.437
[1]; first compound 8 µM
  relative viability: 0.454
[2]; first compound 0.08 µM
  relative viability: 0.372
[2]; first compound 0.8 µM
  relative viability: 0.278
[2]; first compound 2.53 µM
  relative viability: 0.296
[2]; first compound 8 µM
  relative viability: 0.215
[3]; first compound 0.08 µM
  relative viability: 0.527
[3]; first compound 0.8 µM
  relative viability: 0.308
[3]; first compound 2.53 µM
  relative viability: 0.381
[3]; first compound 8 µM
  relative viability: 0.358
[4]; first compound 0.08 µM
  relative viability: 0.102
[4]; first compound 0.8 µM
  relative viability: 0.118
[4]; first compound 2.53 µM
  relative viability: 0.121
[4]; first compound 8 µM
  relative viability: 0.102
Ruboxistaurin + Olaparib; first compound 0.08 µM
  relative viability: 0.763
Ruboxistaurin + Olaparib; first compound 0.8 µM
  relative viability: 0.558
Ruboxistaurin + Olaparib; first compound 2.53 µM
  relative viability: 0.663
Ruboxistaurin + Olaparib; first compound 8 µM
  relative viability: 0.447
[5]; first compound 0.08 µM
  relative viability: 0.215
[5]; first compound 0.8 µM
  relative viability: 0.216
[5]; first compound 2.53 µM
  relative viability: 0.2
[5]; first compound 8 µM
  relative viability: 0.201
[6]; first compound 0.08 µM
  relative viability: 0.19
[6]; first compound 0.8 µM
  relative viability: 0.198
[6]; first compound 2.53 µM
  relative viability: 0.17
[6]; first compound 8 µM
  relative viability: 0.167
[7]; first compound 0.08 µM
  relative viability: 1.02
[7]; first compound 0.8 µM
  relative viability: 0.691
[7]; first compound 2.53 µM
  relative viability: 0.89
[7]; first compound 8 µM
  relative viability: 1.04
[8]; first compound 0.08 µM
  relative viability: 0.82
[8]; first compound 0.8 µM
  relative viability: 0.692
[8]; first compound 2.53 µM
  relative viability: 0.741
[8]; first compound 8 µM
  relative viability: 0.706
